Results from patent publication US12679824B2 (Hoffmann-La Roche Inc., priority 2020, dated 2026).
Like-named read-outs stand apart in the source and are kept apart here.

Tested on: Acinetobacter baumannii ATCC17961
Assay: 90% Growth Inhibitory Concentration (IC90) determination, antimicrobial susceptibility testing
Assay type: cell-based
Settings: read-out: ATCC 17961 IC90
Description: Antimicrobial Susceptibility Testing:
90% Growth Inhibitory Concentration (IC90) Determination
The in vitro antimicrobial activity of the compounds was determined according to the following procedure:
The assay used a 10-points Iso-Sensitest broth medium to measure quantitatively the in vitro activity of the compounds against Acinetobacter baumannii ATCC17961.
Stock compounds in DMSO were serially twofold diluted (e.g. range from 50 to 0.097 μM final concentration) in 384 wells microtiter plates and inoculated with 49 μl the bacterial suspension in Iso-Sensitest medium to have a final cell concentration of ~5×10^(5) CFU/ml in a final volume/well of 50 ul/well. Microtiter plates were incubated at 35±2° C.
Bacterial cell growth was determined with the measurement of optical density at λ=600 nm each 20 minutes over a time course of 16h. Growth inhibition was calculated during the logarithmic growth of the bacterial cells with determination of the concentration inhibiting 50% (IC50) and 90% (IC90) of the growth.
Table 1 provides the 90% growth inhibitory concentrations (IC90) in micromoles per liter of the compounds of present invention obtained against the strain Acinetobacter baumannii ATCC17961.

[1] = Acinetobacter baumannii, ATCC17961, 16 h, Acinetobacter baumannii ATCC17961, Iso-Sensitest broth, growth by optical density at 600 nm over 16h, concentration inhibiting 90% of the growth
[2] = Acinetobacter baumannii, ATCC17961, 16 h

Row | Structure (SMILES) | IC90 [1] | also measured
1 | Cn1c(-c2cn(-c3ccc(N)cn3)nc2C(F)(F)F)cnc1C(=O)Nc1ccc(C(=O)N[C@H]2C[C@@H](NC(=O)[C@@H]3C[C@@H](O)CN3)C2)c(Cl)c1 (stereo in doubt) [Example Z42, 5-[1-(5-amino-2-pyridyl)-3-(trifluoromethyl)pyrazol-4-yl]-N-[3-chloro-4-[cis-[3-[[(2S,4R)-4-hydroxyprolyl]amino]cyclobutyl]carbamoyl]phenyl]-1-methyl-imidazole-2-carboxamide] |  | IC90 (Acinetobacter baumannii ATCC17961, Iso-Sensitest broth, growth by optical density at 600 nm over 16h, concentration inhibiting 90% of the growth): 630 nM
2 | Cn1c(-c2cn(-c3ccc(N)cn3)nc2C(F)(F)F)cnc1C(=O)Nc1ccc(C(=O)NCC2(NC(=O)[C@@H]3CC(O)CN3)CC2)c(Cl)c1 (stereo in doubt) [Example Z43, 5-[1-(5-amino-2-pyridyl)-3-(trifluoromethyl)pyrazol-4-yl]-N-[3-chloro-4-[[1-[[(2S,4R)-4-hydroxyprolyl]amino]cyclopropyl]methylcarbamoyl]phenyl]-1-methyl-imidazole-2-carboxamide] | 1220 nM | 
3 | Cn1c(-c2cn(-c3ncccn3)nc2C(F)(F)F)cnc1C(=O)Nc1ccc(C(=O)N2CCN(C(=O)C3CCNCC3)CC2)c(Cl)c1 [Example A1, N-[3-Chloro-4-[4-(piperidine-4-carbonyl)piperazine-1-carbonyl]phenyl]-1-methyl-5-[1-pyrimidin-2-yl-3-(trifluoromethyl)pyrazol-4-yl]imidazole-2-carboxamide] |  | IC90 [2]: 690 nM
4 | Cn1c(-c2cn(-c3ccncc3)nc2C(F)(F)F)cnc1C(=O)Nc1ccc(C(=O)N2CCN(C(=O)C3CCNCC3)CC2)c(Cl)c1 [Example A2, N-[3-chloro-4-[4-(piperidine-4-carbonyl)piperazine-1-carbonyl]phenyl]-1-methyl-5-[1-(4-pyridyl)-3-(trifluoromethyl)pyrazol-4-yl]imidazole-2-carboxamide] | 710 nM | 
5 | Cn1c(-c2cn(-c3ccc(Cl)cn3)nc2C(F)(F)F)cnc1C(=O)Nc1ccc(C(=O)N2CCN(C(=O)C3CCNCC3)CC2)c(Cl)c1 [Example A3, N-[3-chloro-4-[4-(piperidine-4-carbonyl)piperazine-1-carbonyl]phenyl]-5-[1-(5-chloro-2-pyridyl)-3-(trifluoromethyl)pyrazol-4-yl]-1-methyl-imidazole-2-carboxamide] | 370 nM | 
6 | Cn1c(-c2cn(-c3ncc(N)cn3)nc2C(F)(F)F)cnc1C(=O)Nc1ccc(C(=O)N2CCN(C(=O)C3CCNCC3)CC2)c(Cl)c1 [Example A5, 5-[1-(5-aminopyrimidin-2-yl)-3-(trifluoromethyl)pyrazol-4-yl]-N-[3-chloro-4-[4-(piperidine-4-carbonyl)piperazine-1-carbonyl]phenyl]-1-methyl-imidazole-2-carboxamide] | 1000 nM | 
7 | COCCOc1cnc(-n2cc(-c3cnc(C(=O)Nc4ccc(C(=O)N5CCN(C(=O)C6CCNCC6)CC5)c(Cl)c4)n3C)c(C(F)(F)F)n2)nc1 [Example A6, N-[3-chloro-4-[4-(piperidine-4-carbonyl)piperazine-1-carbonyl]phenyl]-5-[1-[5-(2-methoxyethoxy)pyrimidin-2-yl]-3-(trifluoromethyl)pyrazol-4-yl]-1-methyl-imidazole-2-carboxamide] | 540 nM | 
8 | Cn1c(-c2cn(-c3ncc(F)cn3)nc2C(F)(F)F)cnc1C(=O)Nc1ccc(C(=O)N2CCN(C(=O)C3CCNCC3)CC2)c(Cl)c1 [Example A8, N-[3-chloro-4-[4-(piperidine-4-carbonyl)piperazine-1-carbonyl]phenyl]-5-[1-(5-fluoropyrimidin-2-yl)-3-(trifluoromethyl)pyrazol-4-yl]-1-methyl-imidazole-2-carboxamide] | 910 nM | 
9 | Cn1c(-c2cn(-c3ncc4cn[nH]c4n3)nc2C(F)(F)F)cnc1C(=O)Nc1ccc(C(=O)N2CCN(C(=O)C3CCNCC3)CC2)c(Cl)c1 [Example A9, N-[3-chloro-4-[4-(piperidine-4-carbonyl)piperazine-1-carbonyl]phenyl]-1-methyl-5-[1-(1h-pyrazolo[3,4-d]pyrimidin-6-yl)-3-(trifluoromethyl)pyrazol-4-yl]imidazole-2-carboxamide] | 510 nM | 
10 | Cn1c(-c2cn(-c3ncccc3C(F)(F)F)nc2C(F)(F)F)cnc1C(=O)Nc1ccc(C(=O)N2CCN(C(=O)C3CCNCC3)CC2)c(Cl)c1 [Example A10, N-[3-chloro-4-[4-(piperidine-4-carbonyl)piperazine-1-carbonyl]phenyl]-1-methyl-5-[3-(trifluoromethyl)-1-[3-(trifluoromethyl)-2-pyridyl]pyrazol-4-yl]imidazole-2-carboxamide] | 830 nM | 
11 | Cn1c(-c2cn(-c3ccccn3)nc2C(F)(F)F)cnc1C(=O)Nc1ccc(C(=O)N2CCN(C(=O)C3CCNCC3)CC2)c(Cl)c1 [Example A11, N-[3-chloro-4-[4-(piperidine-4-carbonyl)piperazine-1-carbonyl]phenyl]-1-methyl-5-[1-(2-pyridyl)-3-(trifluoromethyl)pyrazol-4-yl]imidazole-2-carboxamide] | 240 nM | 
12 | COc1ccnc(-n2cc(-c3cnc(C(=O)Nc4ccc(C(=O)N5CCN(C(=O)C6CCNCC6)CC5)c(Cl)c4)n3C)c(C(F)(F)F)n2)c1 [Example A12, N-[3-chloro-4-[4-(piperidine-4-carbonyl)piperazine-1-carbonyl]phenyl]-5-[1-(4-methoxy-2-pyridyl)-3-(trifluoromethyl)pyrazol-4-yl]-1-methyl-imidazole-2-carboxamide] | 250 nM | 
13 | COc1ccc(-n2cc(-c3cnc(C(=O)Nc4ccc(C(=O)N5CCN(C(=O)C6CCNCC6)CC5)c(Cl)c4)n3C)c(C(F)(F)F)n2)nc1 [Example A13, N-[3-chloro-4-[4-(piperidine-4-carbonyl)piperazine-1-carbonyl]phenyl]-5-[1-(5-methoxy-2-pyridyl)-3-(trifluoromethyl)pyrazol-4-yl]-1-methyl-imidazole-2-carboxamide] | 210 nM | 
14 | Cn1c(-c2cn(-c3nccc(OCCN)n3)nc2C(F)(F)F)cnc1C(=O)Nc1ccc(C(=O)N2CCN(C(=O)C3CCNCC3)CC2)c(Cl)c1 [Example A14, 5-[1-[4-(2-aminoethoxy)pyrimidin-2-yl]-3-(trifluoromethyl)pyrazol-4-yl]-N-[3-chloro-4-[4-(piperidine-4-carbonyl)piperazine-1-carbonyl]phenyl]-1-methyl-imidazole-2-carboxamide] | 2200 nM | 
15 | Cn1c(-c2cn(-c3nccc(N)n3)nc2C(F)(F)F)cnc1C(=O)Nc1ccc(C(=O)N2CCN(C(=O)C3CCNCC3)CC2)c(Cl)c1 [Example A15, 5-[1-(4-aminopyrimidin-2-yl)-3-(trifluoromethyl)pyrazol-4-yl]-N-[3-chloro-4-[4-(piperidine-4-carbonyl)piperazine-1-carbonyl]phenyl]-1-methyl-imidazole-2-carboxamide] | 590 nM | 
16 | CNc1ccnc(-n2cc(-c3cnc(C(=O)Nc4ccc(C(=O)N5CCN(C(=O)C6CCNCC6)CC5)c(Cl)c4)n3C)c(C(F)(F)F)n2)n1 [Example A16, N-[3-chloro-4-[4-(piperidine-4-carbonyl)piperazine-1-carbonyl]phenyl]-1-methyl-5-[1-[4-(methylamino)pyrimidin-2-yl]-3-(trifluoromethyl)pyrazol-4-yl]imidazole-2-carboxamide] | 680 nM | 
17 | CN(C)c1ccnc(-n2cc(-c3cnc(C(=O)Nc4ccc(C(=O)N5CCN(C(=O)C6CCNCC6)CC5)c(Cl)c4)n3C)c(C(F)(F)F)n2)n1 [Example A17, N-[3-chloro-4-[4-(piperidine-4-carbonyl)piperazine-1-carbonyl]phenyl]-5-[1-[4-(dimethylamino)pyrimidin-2-yl]-3-(trifluoromethyl)pyrazol-4-yl]-1-methyl-imidazole-2-carboxamide] | 500 nM | 
18 | COCCNc1ccnc(-n2cc(-c3cnc(C(=O)Nc4ccc(C(=O)N5CCN(C(=O)C6CCNCC6)CC5)c(Cl)c4)n3C)c(C(F)(F)F)n2)n1 [Example A19, N-[3-chloro-4-[4-(piperidine-4-carbonyl)piperazine-1-carbonyl]phenyl]-5-[1-[4-(2-methoxyethylamino)pyrimidin-2-yl]-3-(trifluoromethyl)pyrazol-4-yl]-1-methyl-imidazole-2-carboxamide] | 1200 nM | 
19 | Cn1c(-c2cn(-c3cnccn3)nc2C(F)(F)F)cnc1C(=O)Nc1ccc(C(=O)N2CCN(C(=O)C3CCNCC3)CC2)c(Cl)c1 [Example A20, N-[3-chloro-4-[4-(piperidine-4-carbonyl)piperazine-1-carbonyl]phenyl]-1-methyl-5-[1-pyrazin-2-yl-3-(trifluoromethyl)pyrazol-4-yl]imidazole-2-carboxamide] | 480 nM | 
20 | CN(C)c1cnc(-n2cc(-c3cnc(C(=O)Nc4ccc(C(=O)N5CCN(C(=O)C6CCNCC6)CC5)c(Cl)c4)n3C)c(C(F)(F)F)n2)nc1 [Example B1, N-[3-Chloro-4-[4-(piperidine-4-carbonyl)piperazine-1-carbonyl]phenyl]-5-[1-[5-(dimethylamino)pyrimidin-2-yl]-3-(trifluoromethyl)pyrazol-4-yl]-1-methyl-imidazole-2-carboxamide] |  | IC90 [2]: 230 nM
21 | Cn1c(-c2cn(-c3ncc(NCCN)cn3)nc2C(F)(F)F)cnc1C(=O)Nc1ccc(C(=O)N2CCN(C(=O)C3CCNCC3)CC2)c(Cl)c1 [Example B2, 5-[1-[5-(2-aminoethylamino)pyrimidin-2-yl]-3-(trifluoromethyl)pyrazol-4-yl]-N-[3-chloro-4-[4-(piperidine-4-carbonyl)piperazine-1-carbonyl]phenyl]-1-methyl-imidazole-2-carboxamide] | 170 nM | 
